{
  "source": "patent US20030068340A1",
  "about": "“Parenteral formulations of 1-(5-tert-butyl-2-p-tolyl-2H-pyrazol-3-yl)-3-[4-(2-morpholin-4-yl-ethoxy)-naphthalen-1-yl]-urea” (Boehringer Ingelheim Pharmaceuticals, Inc., priority 2001, published 2003)",
  "key": {"[1]": {"assay": "Effect of cyclodextrins on the aqueous solubility of BIRB 796", "type": "physicochemical", "settings": "for solubility: aqueous", "procedure": "Complexing cyclodextrin agents were evaluated as a means to improve the solubility of BIRB 796. The solubility of BIRB 796 was evaluated as a function of the concentrations of underivatized parent β-cyclodextrin (BCD), the alkylated derivatives […]. The results of Table 1 with respect to the solubility of BIRB 796 as a function of HPBCD concentration are illustrated in FIG. 1, and the results of Table 1 with respect to the solubitlity of BIRB 796 as a function of SBECD concentration are shown in FIG. 2."}, "[2]": {"assay": "Solubility and/or stability of BIRB 796 in pharmaceutically-acceptable solvents", "type": "physicochemical", "settings": "30% PEG 400, 40% PG/10% ethanol or aqueous buffer solutions at any pH"}, "[3]": {"assay": "BIRB 796 binding to cyclodextrin (binding isotherm from solubility data), SBECD", "type": "physicochemical", "procedure": "(§1) The binding affinity for the BIRB 796 interaction with the ligands was evaluated in the following manner:\n(§2) where Lt (ligand) is the total HPBCD or SBECD concentration, St is the solubility of BIRB 796 in the presence of ligand, So is the solubility in the absence of ligand, K11 is the binding constant for the 1:1 complex and K12 is the binding constant for the 1:2 complex. Upon rearrangement, these two equations simplify to the following linear equation: [formula]\n(§3) A plot of [L]t vs. (StSo)/[Lt] yields the binding affinity according to the above equation.\n(§4) FIG. 3 illustrates the binding analysis for the interaction between BIRB 796 and HPBCD at different concentrations. FIG. 4 illustrates the binding analysis for the interaction between BIRB 796 and SBECD at different concentrations. The binding constants were obtained through the slope and intercept values."}, "[4]": {"assay": "BIRB 796 binding to cyclodextrin (binding isotherm from solubility data), HPBCD", "type": "physicochemical", "procedure": "as §1, §2, §3, §4"}, "[5]": {"tested_on": "proinflammatory cytokines, such as tumor necrosis factor (TNF) and interleukin-1 (IL-1)", "settings": "disclosed in PCT/US99/29165; cited from earlier work"}, "[6]": {"assay": "Stability of BIRB 796 in PEG 400 as function of temperature, storage atmosphere and light exposure", "type": "physicochemical", "settings": "for kobs / t90: PEG 400, C0 = 30 mg/mL; for half-life at 30 mg/mL: solution in PEG 400, PEG 400, C0 = 30 mg/mL", "procedure": "The stability of BIRB 796 in PEG 400 was evaluated. An initial BIRB 796 concentration of approximately 30 mg/mL was prepared and the percent of BIRB 796 remaining in the PEG 400 solvent evaluated over an approximately two week time frame for differing conditions. The PEG 400-BIRB 796 mixture was kept under several different conditions: (1) at room temperature (about 23° C.) in ambient air in the dark; (2) at room temperature (about 23° C.) in ambient air in the light; (3) at 40° C. in ambient air; (4) at 40° C. in ambient air, the mixture being imbued with 0.1% sodium metabisulfite, an antioxidant; (5) at 60° C. in ambient air; (6) at 60° C. in an oxygen atmosphere; and (7) at 60° C. in a nitrogen atmosphere.\nRate constants were calculated using linear regression analysis of the data."}, "[7]": {"settings": "40° C., 0.1% sodium metabisulfite"}},
  "data": [
    {"smiles": "Cc1ccc(-n2nc(C(C)(C)C)cc2NC(=O)Nc2ccc(OCCN3CCOCC3)c3ccccc23)cc1", "note": "[BIRB 796, 1-(5-tert-butyl-2-p-tolyl-2H-pyrazol-3-yl)-3-[4-(2-morpholin-4-yl-ethoxy)-naphthalen-1-yl]-urea]", "values": [
      {"measurement": "solubility", "setting": "[1]; aqueous cyclodextrin solution, aqueous with cosolvent or surfactant or cyclodextrin, BCD 0.7 % w/v", "value": 44, "unit": "µg/mL"},
      {"measurement": "solubility", "setting": "[1]; aqueous cyclodextrin solution, aqueous with cosolvent or surfactant or cyclodextrin, BCD 1.4 % w/v", "value": 74, "unit": "µg/mL"},
      {"measurement": "solubility", "setting": "[1]; aqueous cyclodextrin solution, aqueous with cosolvent or surfactant or cyclodextrin, BCD 2 % w/v", "value": 87, "unit": "µg/mL"},
      {"measurement": "solubility", "setting": "[1]; aqueous cyclodextrin solution, aqueous with cosolvent or surfactant or cyclodextrin, HPBCD 1 % w/v", "value": 24, "unit": "µg/mL"},
      {"measurement": "solubility", "setting": "[1]; aqueous cyclodextrin solution, aqueous with cosolvent or surfactant or cyclodextrin, HPBCD 2.5 % w/v", "value": 49, "unit": "µg/mL"},
      {"measurement": "solubility", "setting": "[1]; aqueous cyclodextrin solution, aqueous with cosolvent or surfactant or cyclodextrin, HPBCD 5 % w/v", "value": 137, "unit": "µg/mL"},
      {"measurement": "solubility", "setting": "[1]; aqueous cyclodextrin solution, aqueous with cosolvent or surfactant or cyclodextrin, HPBCD 10 % w/v", "value": 233, "unit": "µg/mL"},
      {"measurement": "solubility", "setting": "[1]; aqueous cyclodextrin solution, aqueous with cosolvent or surfactant or cyclodextrin, HPBCD 25 % w/v", "value": 1540, "unit": "µg/mL"},
      {"measurement": "solubility", "setting": "[1]; aqueous cyclodextrin solution, aqueous with cosolvent or surfactant or cyclodextrin, SBECD 1 % w/v", "value": 21, "unit": "µg/mL"},
      {"measurement": "solubility", "setting": "[1]; aqueous cyclodextrin solution, aqueous with cosolvent or surfactant or cyclodextrin, SBECD 2.5 % w/v", "value": 85, "unit": "µg/mL"},
      {"measurement": "solubility", "setting": "[1]; aqueous cyclodextrin solution, aqueous with cosolvent or surfactant or cyclodextrin, SBECD 5 % w/v", "value": 156, "unit": "µg/mL"},
      {"measurement": "solubility", "setting": "[1]; aqueous cyclodextrin solution, aqueous with cosolvent or surfactant or cyclodextrin, SBECD 10 % w/v", "value": 371, "unit": "µg/mL"},
      {"measurement": "solubility", "setting": "[1]; aqueous cyclodextrin solution, aqueous with cosolvent or surfactant or cyclodextrin, SBECD 25 % w/v", "value": 2170, "unit": "µg/mL"},
      {"measurement": "solubility", "setting": "[1]; aqueous solution without cyclodextrin, SBECD 0 % w/v", "value": 0.5, "unit": "µg/mL"},
      {"measurement": "solubility", "setting": "[1]; aqueous solution without cyclodextrin, no cyclodextrin (0 % w/v)", "value": 3.3, "unit": "µg/mL"},
      {"measurement": "BIRB 796 solubilized by SBECD, more than by HPBCD", "setting": "[1]; highest cyclodextrin concentration evaluated (25% w/v)", "value": "approximately 40%"},
      {"measurement": "solubility and/or stability", "setting": "[2]", "value": "can not achieve a desirable solubility and/or stability"},
      {"measurement": "Binding Constants K1:1", "setting": "[3]; 1:1 complex with SBECD", "value": 8337, "unit": "M⁻¹"},
      {"measurement": "Binding Constants K1.2", "setting": "[3]; 1:2 complex with SBECD", "value": 29.1, "unit": "M⁻¹"},
      {"measurement": "binding affinity of SBECD for BIRB 796 compared with HPBCD", "setting": "[3]; SBECD versus HPBCD, Table 2", "value": "approximately an order of magnitude higher binding affinity"},
      {"measurement": "Binding Constants K1:1", "setting": "[4]; 1:1 complex with HPBCD", "value": 675, "unit": "M⁻¹"},
      {"measurement": "Binding Constants K1.2", "setting": "[4]; 1:2 complex with HPBCD", "value": 17.5, "unit": "M⁻¹"},
      {"measurement": "inhibitory activity with respect to proinflammatory cytokines", "setting": "[5]", "value": "unexpectedly significant inhibitory activity"},
      {"measurement": "kobs", "setting": "[6]; 23° C., air (dark)", "value": -0.00253, "unit": "day⁻¹"},
      {"measurement": "t90", "setting": "[6]; 23° C., air (dark)", "value": 41.5, "unit": "days"},
      {"measurement": "kobs", "setting": "[6]; 23° C., air, light", "value": -0.0078, "unit": "day⁻¹"},
      {"measurement": "t90", "setting": "[6]; 23° C., air, light", "value": 13.5, "unit": "days"},
      {"measurement": "kobs", "setting": "[6]; [7]", "value": -0.0161, "unit": "day⁻¹"},
      {"measurement": "t90", "setting": "[6]; [7]", "value": 6.52, "unit": "days"},
      {"measurement": "kobs", "setting": "[6]; 40° C., air", "value": -0.0192, "unit": "day⁻¹"},
      {"measurement": "t90", "setting": "[6]; 40° C., air", "value": 5.47, "unit": "days"},
      {"measurement": "kobs", "setting": "[6]; 60° C., N2", "value": -0.0552, "unit": "day⁻¹"},
      {"measurement": "t90", "setting": "[6]; 60° C., N2", "value": 1.90, "unit": "days"},
      {"measurement": "kobs", "setting": "[6]; 60° C., O2", "value": -0.0772, "unit": "day⁻¹"},
      {"measurement": "t90", "setting": "[6]; 60° C., O2", "value": 1.36, "unit": "days"},
      {"measurement": "kobs", "setting": "[6]; 60° C., air", "value": -0.0587, "unit": "day⁻¹"},
      {"measurement": "t90", "setting": "[6]; 60° C., air", "value": 1.79, "unit": "days"},
      {"measurement": "degradation rate under constant light relative to dark", "setting": "[6]; PEG 400, room temperature (about 23° C.), ambient air", "value": "approximately three-times as fast"},
      {"measurement": "decomposition in PEG 400", "setting": "[6]; over two weeks, 23° C.", "value": "significant decomposition was observed"},
      {"measurement": "half-life at 30 mg/mL", "setting": "[6]; 23° C., air (dark)", "value": 274, "unit": "days"},
      {"measurement": "half-life at 30 mg/mL", "setting": "[6]; 23° C., air, light", "value": 88.8, "unit": "days"},
      {"measurement": "half-life at 30 mg/mL", "setting": "[6]; [7]", "value": 43, "unit": "days"},
      {"measurement": "half-life at 30 mg/mL", "setting": "[6]; 40° C., air", "value": 36.1, "unit": "days"},
      {"measurement": "half-life at 30 mg/mL", "setting": "[6]; 60° C., N2", "value": 12.6, "unit": "days"},
      {"measurement": "half-life at 30 mg/mL", "setting": "[6]; 60° C., O2", "value": 8.98, "unit": "days"},
      {"measurement": "half-life at 30 mg/mL", "setting": "[6]; 60° C., air", "value": 11.8, "unit": "days"}
    ]}
  ]
}
